Measurements taken from patent publication US12491170B2, “Stable treprostinil prodrugs” (United Therapeutics Corporation, priority 2020, dated 2025).
Where two headings read alike, the source gives them in different places.

Experiments:
[1] = Stability in cryopreserved hepatocytes, human; settings: for AUC: human
Protocol: (§1) Mixed-gender human cryopreserved hepatocytes, male Sprague-Dawley rat cryopreserved hepatocytes, and male Beagle dog cryopreserved hepatocytes were purchased from XenoTech. The hepatocytes were thawed and prepared according to the vendor's instructions, pooled into Krebs Henseleit buffer (KHB, pH 7.4), and kept on ice prior to the experiments. […] The final DMSO content in the incubation mixture was ≤0.1%. […] Aliquots of the test article were withdrawn (n=1) at 0, 15, 30, 60, and 120 minutes. […] Aliquots of 7-HC were withdrawn (n=1) at 0 and 15 minutes. The reaction was immediately terminated by adding two volumes of ice-cold acetonitrile (ACN) to the test article samples and three volumes of ACN containing internal standard to the positive control samples. The samples were then mixed and centrifuged to precipitate proteins. An aliquot of the supernatant was then diluted with water and analyzed by LC-MS/MS against calibration standards prepared in a matched matrix. […] All test article samples were analyzed for the dosed prodrugs as well as the drug, treprostinil. The test article concentration was compared to the concentration at time 0 to determine the percent of test article remaining at each time point. Half-lives and clearance values were calculated using GraphPad software, fitting to a single-phase exponential decay equation.

[2] = dog
[3] = Stability in liver microsomes, dog
Protocol: (§2) Mixed-gender human liver microsomes, male Sprague-Dawley rat liver microsomes, and male Beagle dog liver microsomes were purchased from XenoTech. The reaction mixture, minus NADPH, was prepared as described below. […] An aliquot of the reaction mixture (without cofactor) was equilibrated in a shaking water bath at 37° C. for 5 minutes. The reaction was initiated by the addition of cofactor, and the mixture was incubated in a shaking water bath at 37° C. Aliquots (200 μL) were withdrawn at 0, 10, 20, 30, and 60 minutes. Test article samples were immediately combined with 400 μL of ice-cold acetonitrile (ACN) to terminate the reaction. […] The samples were then mixed and centrifuged to precipitate proteins. Aliquots of the supernatant were removed, diluted 1:1 into distilled water containing internal standard, and analyzed by LC-MS/MS against calibration standards prepared in a matched matrix. All samples were analyzed for the dosed prodrugs as well as the drug, treprostinil. The test article concentration was compared to the concentration at time 0 to determine the percent of test article remaining at each time point. Half-lives and clearance were calculated using GraphPad software, fitting to a single-phase exponential decay equation.
(§3) • Liver Microsomes 0.5 mg/mL • NADPH (cofactor) 1 mM • Potassium Phosphate, pH 7.4 100 mM • Magnesium Chloride 5 mM • Test Article 1 μM

[4] = Stability in liver microsomes, human; settings: for AUC: human
Protocol: as §2, §3

[5] = rat
[6] = Stability in liver microsomes, rat
Protocol: as §2, §3

[7] = Stability in cryopreserved hepatocytes, dog; settings: for AUC: dog
Protocol: as §1

[8] = Stability in cryopreserved hepatocytes, rat; settings: for AUC: rat
Protocol: as §1

| Compound | Trep Concentration (μM) 0 min [1] | Trep Concentration (μM) 15 min [1] | Trep Concentration (μM) 30 min [1] | Trep Concentration (μM) 60 min [1] | Trep Concentration (μM) 120 min [1] | AUC [1] | AUC [2] | Trep Concentration 0 min [3] | Trep Concentration 10 min [3] | Trep Concentration 20 min [3] | Trep Concentration 30 min [3] | Trep Concentration 60 min [3] | Trep Concentration 0 min [4] | Trep Concentration 10 min [4] | Trep Concentration 20 min [4] | Trep Concentration 30 min [4] | Trep Concentration 60 min [4] | AUC [4] | AUC [5] | Trep Concentration 0 min [6] | also measured |
| --- | --- | --- | --- | --- | --- | --- | --- | --- | --- | --- | --- | --- | --- | --- | --- | --- | --- | --- | --- | --- | --- |
| CCCCCC1CCC2C(CC3Cc4c(cccc4OCC(=O)O)CC32)OP(=O)(Oc2ccccc2)O1 (mixture of isomers) [XXVIII] | 0 µM | 0 µM | 0 µM | 0 µM | 0 µM | 0.00 µmol·min/L | 0.11 µmol·min/L | 0 µM | 0 µM | 0.00553 µM | 0.003 µM | 0 µM | 0 µM | 0 µM | 0 µM | 0 µM | 0 µM | 0.00 µmol·min/L | 0.00 µmol·min/L | 0 µM | Trep Concentration 10 min [6]: 0 µM; Trep Concentration 20 min [6]: 0 µM; Trep Concentration 30 min [6]: 0 µM; Trep Concentration 60 min [6]: 0 µM; Trep Concentration (μM) 0 min [7]: 0 µM; Trep Concentration (μM) 15 min [7]: 0 µM; Trep Concentration (μM) 30 min [7]: 0 µM; Trep Concentration (μM) 60 min [7]: 0 µM; Trep Concentration (μM) 120 min [7]: 0.00339 µM; AUC [7]: 0.10 µmol·min/L; Trep Concentration (μM) 0 min [8]: 0 µM; Trep Concentration (μM) 15 min [8]: 0 µM; Trep Concentration (μM) 30 min [8]: 0 µM; Trep Concentration (μM) 60 min [8]: 0 µM; Trep Concentration (μM) 120 min [8]: 0 µM; AUC [8]: 0.00 µmol·min/L |
| CCCCCC(CCC1C(O)CC2Cc3c(cccc3OCC(=O)O)CC21)OC(=O)NCCO (stereo not drawn) [LIX] | 0 µM | 0 µM | 0 µM | 0 µM | 0 µM | 0.00 µmol·min/L | 0.00 µmol·min/L | 0 µM | 0 µM | 0 µM | 0 µM | 0 µM | 0 µM | 0 µM | 0 µM | 0 µM | 0 µM | 0.00 µmol·min/L | 0.00 µmol·min/L | 0 µM | Trep Concentration 10 min [6]: 0 µM; Trep Concentration 20 min [6]: 0 µM; Trep Concentration 30 min [6]: 0 µM; Trep Concentration 60 min [6]: 0 µM; Trep Concentration (μM) 0 min [7]: 0 µM; Trep Concentration (μM) 15 min [7]: 0 µM; Trep Concentration (μM) 30 min [7]: 0.00416 µM; Trep Concentration (μM) 60 min [7]: 0.00836 µM; Trep Concentration (μM) 120 min [7]: 0.00907 µM; AUC [7]: 0.74 µmol·min/L; Trep Concentration (μM) 0 min [8]: 0 µM; Trep Concentration (μM) 15 min [8]: 0 µM; Trep Concentration (μM) 30 min [8]: 0 µM; Trep Concentration (μM) 60 min [8]: 0 µM; Trep Concentration (μM) 120 min [8]: 0 µM; AUC [8]: 0.00 µmol·min/L |
| CCCCCC(CCC1C(O)CC2Cc3c(cccc3OCC(=O)O)CC21)OC(=O)N1CCC(O)CC1 (stereo not drawn) [LVIII] | 0 µM | 0 µM | 0 µM | 0 µM | 0 µM | 0.00 µmol·min/L | 0.00 µmol·min/L | 0 µM | 0 µM | 0 µM | 0 µM | 0 µM | 0 µM | 0 µM | 0 µM | 0 µM | 0 µM | 0.00 µmol·min/L | 0.00 µmol·min/L | 0 µM | Trep Concentration 10 min [6]: 0 µM; Trep Concentration 20 min [6]: 0 µM; Trep Concentration 30 min [6]: 0 µM; Trep Concentration 60 min [6]: 0 µM; Trep Concentration (μM) 0 min [7]: 0 µM; Trep Concentration (μM) 15 min [7]: 0 µM; Trep Concentration (μM) 30 min [7]: 0.00519 µM; Trep Concentration (μM) 60 min [7]: 0.00214 µM; Trep Concentration (μM) 120 min [7]: 0.00344 µM; AUC [7]: 0.32 µmol·min/L; Trep Concentration (μM) 0 min [8]: 0 µM; Trep Concentration (μM) 15 min [8]: 0 µM; Trep Concentration (μM) 30 min [8]: 0 µM; Trep Concentration (μM) 60 min [8]: 0 µM; Trep Concentration (μM) 120 min [8]: 0 µM; AUC [8]: 0.00 µmol·min/L |
| CCCCCC(CCC1C(O)CC2Cc3c(cccc3OCC(=O)O)CC21)OCC(=O)O (stereo not drawn) [LVII] | 0 µM | 0 µM | 0 µM | 0 µM | 0 µM | 0.00 µmol·min/L | 0.00 µmol·min/L | 0 µM | 0 µM | 0 µM | 0 µM | 0 µM | 0 µM | 0 µM | 0 µM | 0 µM | 0 µM | 0.00 µmol·min/L | 0.00 µmol·min/L | 0 µM | Trep Concentration 10 min [6]: 0 µM; Trep Concentration 20 min [6]: 0 µM; Trep Concentration 30 min [6]: 0 µM; Trep Concentration 60 min [6]: 0 µM; Trep Concentration (μM) 0 min [7]: 0 µM; Trep Concentration (μM) 15 min [7]: 0 µM; Trep Concentration (μM) 30 min [7]: 0 µM; Trep Concentration (μM) 60 min [7]: 0 µM; Trep Concentration (μM) 120 min [7]: 0 µM; AUC [7]: 0.00 µmol·min/L; Trep Concentration (μM) 0 min [8]: 0 µM; Trep Concentration (μM) 15 min [8]: 0 µM; Trep Concentration (μM) 30 min [8]: 0 µM; Trep Concentration (μM) 60 min [8]: 0 µM; Trep Concentration (μM) 120 min [8]: 0 µM; AUC [8]: 0.00 µmol·min/L |
| CCCCCC(CCC1C(O)CC2Cc3c(cccc3OCC(=O)O)CC21)Oc1ccccc1C(=O)O (stereo not drawn) [LVI] | 0 µM | 0 µM | 0 µM | 0 µM | 0 µM | 0.00 µmol·min/L | 0.00 µmol·min/L | 0 µM | 0 µM | 0.003 µM | 0 µM | 0 µM | 0 µM | 0 µM | 0 µM | 0 µM | 0 µM | 0.00 µmol·min/L | 0.00 µmol·min/L | 0 µM | Trep Concentration 10 min [6]: 0 µM; Trep Concentration 20 min [6]: 0 µM; Trep Concentration 30 min [6]: 0 µM; Trep Concentration 60 min [6]: 0 µM; Trep Concentration (μM) 0 min [7]: 0 µM; Trep Concentration (μM) 15 min [7]: 0.005 µM; Trep Concentration (μM) 30 min [7]: 0.005 µM; Trep Concentration (μM) 60 min [7]: 0.003 µM; Trep Concentration (μM) 120 min [7]: 0 µM; AUC [7]: 0.00 µmol·min/L; Trep Concentration (μM) 0 min [8]: 0 µM; Trep Concentration (μM) 15 min [8]: 0 µM; Trep Concentration (μM) 30 min [8]: 0 µM; Trep Concentration (μM) 60 min [8]: 0 µM; Trep Concentration (μM) 120 min [8]: 0 µM; AUC [8]: 0.00 µmol·min/L |
